The values that follow are results of earlier work, collected in patent US20030139355A1, “Medicine for orthopaedic surgical application and a treating method using thereof” (priority 2001, published 2003).

In data set [1] the test system is selectins. The note with it: in vitro; J. Biol. Chem. 1994.
Data set [2] has as its system ischemia reperfusion disorder in liver. The conditions noted are these: literature reports.

For the compound `CC1(C)[C@@H](O[C@H]2O[C@H](C(=O)O)[C@@H](O)[C@H](O)[C@H]2O[C@@H]2O[C@H](C(=O)O)[C@@H](O)[C@H](O)[C@H]2O)CC[C@]2(C)[C@H]3C(=O)C=C4[C@@H]5C[C@@](C)(C(=O)O)CC[C@]5(C)CC[C@@]4(C)[C@]3(C)CC[C@@H]12` [glycyrrhizin], in data set [1], the “Binding between Sialyl-Lewis X and selectins” value was “prevents binding between Sialyl-Lewis X and selectins”. Moreover, the “Inhibitory effects on ischemia reperfusion disorder in liver” value in data set [2] is “effectively exhibits inhibitory effects”.
